# Experimental data taken from US10023615B2, “Efficient transport into white blood cells” (priority 2008, dated 2018).
# “Also recorded” adds a separate entry of the source. Ends that are not written are not given here.
# Assays:
# [1] = system: amyloid plaques in cortex and hippocampus; assay: Amyloid depositions and plaque load (6E10 IHC, ThioflavinS) in hAPP Tg mice; assay type: in vivo, mouse
# Experimental: a) METHODS • i) Introduction • The study was designed to evaluate the efficacy of the test substance (XG-102, SEQ ID NO: 233) on behavioral, biochemical and histological markers using 5 months (±2 weeks) old female hAPP Tg mice. Therefore, mice were treated every two or three weeks up to 4 months and in the end of the treatment period behavior was evaluated in the Morris Water Maze. At sacrifice brain, CSF and blood were collected. Aβ40 and Aβ42 levels were determined in four different brain homogenate fractions as well as in CSF of Tg mice. Plaque load was quantified in the cortex and the hippocampus of 8 Tg animals per treatment group.
# iv) Treatment • […] female hAPP transgenic mice were treated with either 0.1 mg/kg b.w./every two weeks or 10 mg/kg b.w./every three weeks of the test substance XG-102 (SEQ ID NO: 233) in two different dosages (n=12/group) or treated with the vehicle (n=12) s.c. once every three weeks over four months.
# viii) Evaluation of Brain Morphology • Brain tissues of all Tg animals investigated were handled in exactly the same way to avoid bias due to variation of this procedure. From brain halves of 24 Tg mice (8 of each group) 20 cryo-sections per layer (altogether 5 layers), each 10 μm thick (Leica CM 3050S) were sagittally cut and 5 (one from each layer) were processed and evaluated for quantification of plaque load. The five sagittal layers corresponded with the FIGS. 104 to 105, 107 to 108, 111 to 112, 115 to 116 and 118 to 119 according to the morphology atlas “The Mouse Brain” from Paxinos and Franklin (2nd edition). The first layer was specified by the requirement to include the whole hippocampus with it's regions CA1, CA2, CA3, GDlb and GDmb. Immunoreactivity was quantitatively evaluated in the hippocampus and in the cortex using the monoclonal human Aβ-specific antibody 6E10 (Signet) as well as ThioflavinS staining. Remaining brain hemispheres or tissue not used were saved and stored at JSW CNS until the end of the project.
# b) Evaluation • i) Behavior • In the Morris Water Maze trials length of swimming path, escape latencies, swimming speed and in the probe trial crossings over the former platform position and the time spent in each quadrant of the pool were measured for each Tg animal with a special computer software. • ii) Biochemical Evaluation • From all Tg mice CSF samples as well as samples from the brain preparations were analyzed with commercially available Aβ1-40 and Aβ1-42 ELISAs. Measurements of adequate standards were performed concurrently. Samples from brain preparations were analyzed in duplicates. […]
# [2] = system: primary cultured macrophages; assay: Incorporation of XG-102 into primary cultured macrophages, antibody detection; assay type: cell-based; settings: incubated and extensively washed; specific antibody
# Experimental: FIG. 5: (A): Primary cultured macrophages were incubated with XG-102 (SEQ ID NO: 233) and extensively washed. […] (B): Mice were injected i.v. with 0.1 mg/kg FITC-D-TAT (SEQ ID NO: 4 plus FITC) and were sacrificed 24 hours later with PAF perfusion through the heart. Slices were obtained after cryoprotection using cryostat.
# liver, Kupffer cells = assay: Immunostaining against XG-102 in the liver after i.v. injection; assay type: in vivo, rat; settings: 1 mg/kg i.v., 24 hours
# Text: Revelation was done using DAB substrate.
# TC-3 cells = assay: Inhibition of IL-1 induced pancreatic beta-cell death; assay type: cell-based; settings: 1 μM single addition, IL-1 10 ng/ml, two days
# Experimental: Inhibition of IL-1 induced pancreatic beta-cell death by the D-TAT-IB1(s) peptide was analyzed. TC-3 cells were incubated for 30 minutes with one single addition of the indicated peptides (1, μM), then IL-1 (10 ng/ml) was added.
# Apoptotic cells were then counted after two days of incubation with IL-1 by use of Propidium Iodide and Hoechst 33342 nuclear staining. A minimum of 1,000 cells were counted for each experiment.
# Long term inhibition of IL-1P induced cell-death by the D-TAT-IB1 peptide was also analyzed. TC-3 cells were incubated for 30 minutes with one single addition of the indicated peptides (1 μM), then IL-1 (10 ng/ml) was added, followed by addition of the cytokine every two days. Apoptotic cells were then counted after 15 days of incubation with IL-1 by use of propidium iodide and Hoechst 33342 nuclear staining. […] A minimum of 1.000 cells were counted for each experiment.
substance,measurement,setting,value
dqsrpvqpflnIttprkprpprrrqrrkkrg (DQSRPVQPFLNLTTPRKPRPPRRRQRRKKRG; not fully specified (some residues); printed as dqsrpvqpflnIttprkprpprrrqrrkkrg) [XG-102],"mean plaque size (ThioflavinS, hippocampus)",[1]; 0.1 mg/kg,"reduced mean plaque size, however this effect did not reach significance level in the ANOVA"
same,6E10 IR plaque load (human amyloid),[1]; 10 mg/kg,increased versus vehicle; also recorded: a tendentious increase of human amyloid beta
same,"hippocampal ThioflavinS positive plaques (number, area percentage)",[1]; 0.1 and 10 mg/kg,a negatively dose dependent reduction; also recorded: dose dependently reduced
same,beta-sheet structures in plaques (6E10 and ThioflavinS quantifications),"[1]; mouse, in vivo",a selective reduction of beta-sheet structures in the center of the plaques
same,cortical ThioflavinS plaque load,"[1]; mouse, in vivo",not given for cortical plaques; also recorded: cortical plaque load remained unchanged
same,incorporation into cells,[2],strongly incorporated into primary macrophages
same,accumulation in liver,"liver, Kupffer cells","pronounced accumulation of XG-102 in the liver, and especially, in the Kupffer cells"
same,IL-1 induced apoptosis,TC-3 cells,decreased IL-1 induced apoptosis to a similar extent as L-TAT-IB peptides
